Holding throughout (assay type): biochemical
One experiment deals with T1, MMP-2 (Gelatinase A) (Homo sapiens, UniProt P08253).
T1 sequence (P08253 110-660): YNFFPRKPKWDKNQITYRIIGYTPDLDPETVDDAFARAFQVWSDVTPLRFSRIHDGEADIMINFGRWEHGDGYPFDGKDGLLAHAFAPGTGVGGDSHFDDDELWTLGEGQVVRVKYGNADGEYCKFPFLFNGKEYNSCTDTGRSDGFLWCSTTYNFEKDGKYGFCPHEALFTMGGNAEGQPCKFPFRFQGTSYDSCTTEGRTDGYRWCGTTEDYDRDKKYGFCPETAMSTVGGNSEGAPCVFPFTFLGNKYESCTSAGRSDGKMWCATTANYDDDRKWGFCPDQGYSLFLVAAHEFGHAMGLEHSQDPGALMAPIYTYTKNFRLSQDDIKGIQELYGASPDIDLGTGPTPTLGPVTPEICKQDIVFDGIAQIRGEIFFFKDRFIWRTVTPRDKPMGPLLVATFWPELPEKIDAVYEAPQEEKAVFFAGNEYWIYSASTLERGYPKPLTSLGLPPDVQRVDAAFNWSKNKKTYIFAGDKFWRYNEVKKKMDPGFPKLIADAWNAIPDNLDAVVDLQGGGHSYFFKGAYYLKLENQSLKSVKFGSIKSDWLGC
In words: thiopeptolide substrate hydrolysis assay, MMP-2. The settings on record: inhibition of hydrolytic activity of the enzyme, read-out: IC50 MMP2.

The next experiment deals with MMP-3 (stromelysin) (Homo sapiens, UniProt P08254). In words: thiopeptolide substrate hydrolysis assay, MMP-3. The conditions noted are these: inhibition of hydrolytic activity of the enzyme, read-out: IC50 MMP3.
Experiment [1] addresses T2, MMP-1 (interstitial collagenase) (Homo sapiens, UniProt P03956).
T2 sequence (P03956 100-469): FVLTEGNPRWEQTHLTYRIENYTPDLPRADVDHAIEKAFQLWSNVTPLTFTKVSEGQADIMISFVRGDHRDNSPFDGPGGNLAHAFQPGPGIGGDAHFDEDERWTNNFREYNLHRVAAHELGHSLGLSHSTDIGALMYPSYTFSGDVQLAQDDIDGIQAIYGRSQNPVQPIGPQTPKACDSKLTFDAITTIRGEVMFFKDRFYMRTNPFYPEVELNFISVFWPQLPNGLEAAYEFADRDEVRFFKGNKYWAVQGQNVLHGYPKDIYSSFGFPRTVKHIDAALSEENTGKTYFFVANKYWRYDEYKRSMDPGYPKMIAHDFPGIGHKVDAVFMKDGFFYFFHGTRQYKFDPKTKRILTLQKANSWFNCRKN
In words: thiopeptolide substrate hydrolysis assay, MMP-1. The conditions noted are these: inhibition of hydrolytic activity of the enzyme, read-out: IC50 MMP1.
Procedure: (§1) The assays measure the amount by which a test compound reduces the hydrolysis of a thiopeptolide substrate caused by a matrix metalloproteinase enzyme.
(§2) Thiopeptolide substrates show virtually no decomposition or hydrolysis in the absence of a matrix metalloproteinase enzyme. A typical thiopeptolide substrate commonly utilized for assays is Ac-Pro-Leu-Gly-thioester-Leu-Leu-Gly-OEt. […] Assays are carried out with and without matrix metalloproteinase inhibitor compounds, and the amount of hydrolysis is compared for a determination of inhibitory activity of the test compounds.

MMP-3 (stromelysin), sequence (P08254 100-477, species assumed): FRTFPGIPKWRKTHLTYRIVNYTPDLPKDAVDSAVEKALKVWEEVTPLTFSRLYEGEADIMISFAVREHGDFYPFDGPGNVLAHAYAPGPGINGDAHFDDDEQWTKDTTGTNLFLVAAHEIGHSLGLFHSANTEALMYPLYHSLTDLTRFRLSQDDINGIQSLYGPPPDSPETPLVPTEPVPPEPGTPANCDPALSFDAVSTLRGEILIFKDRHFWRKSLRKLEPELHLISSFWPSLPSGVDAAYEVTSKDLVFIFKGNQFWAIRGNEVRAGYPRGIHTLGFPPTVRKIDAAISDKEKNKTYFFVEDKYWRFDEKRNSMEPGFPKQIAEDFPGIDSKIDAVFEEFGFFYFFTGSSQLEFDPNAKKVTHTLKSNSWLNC
Procedure for MMP-2 (Gelatinase A): as §1, §2
Procedure for MMP-3 (stromelysin): as §1, §2

With `O=C(O)[C@H](CS)NS(=O)(=O)c1ccc2oc3ccccc3c2c1` [(L)-2-(Dibenzofuran-2-sulfonylamino)-3-mercapto-propionic acid], the IC50 (usually the concentration needed to halve the response being measured) worked out at 4450 nM on MMP-2 (Gelatinase A) and 690 nM at MMP-3 (stromelysin).
On the same counts, the results for `O=C(CNS(=O)(=O)c1ccc(N2CCC(c3ccccc3)CC2)cc1)NO` [N-Hydroxy-2-[4-(4-phenyl-piperidin-1-yl)-benzene-sulfonylamino]-acetamide] are 810 nM and 19 nM.
On the same counts, the results for `COc1ccc(N2CCN(c3ccc(S(=O)(=O)N[C@@H](Cc4ccccc4)C(=O)O)cc3)CC2)cc1` [(S)-2-{4-[-4-(4-Methoxy-phenyl)-piperazin-1-yl]-benzenesulfonylamino}-3-phenyl-propionic acid] are 33 nM and 14 nM.
On to `O=C(O)CCC(O)c1ccc(-c2ccc(Cl)cc2)cc1` (racemic) [(±)-4-(4′-Chloro-biphenyl-4-yl)-4-hydroxy-butyric acid], for which the figures for the half-inhibitory concentration (IC50) at MMP-2 (Gelatinase A) and on MMP-3 (stromelysin) were 150 nM and 280 nM, respectively.
As to `O=C(O)[C@H](CCc1ccccc1)NS(=O)(=O)c1ccc2oc3ccccc3c2c1` [(S)-2-(Dibenzofuran-2-sulfonylamino)-4-phenyl-butyric acid], the IC50 at MMP-2 (Gelatinase A) was found to be 265 nM; on MMP-3 (stromelysin), 460 nM.
On the same counts, the results for `O=C(CCC(=O)c1ccc(N2CCC(c3ccccc3)CC2)cc1)NO` [N-Hydroxy-4-oxo-4-[4-(4-phenyl-piperidin-1-yl)-phenyl]-butyramide] are 40 nM and 20 nM.
Turning to `CC(C)[C@H](NS(=O)(=O)c1ccc(-c2ccc([N+](=O)[O-])cc2)cc1)C(=O)O` [(S)-3-Methyl-2-(4′-nitro-biphenyl-4-sulfonylamino)-butyric acid], the IC50 on MMP-3 (stromelysin) was 100 nM.
For `O=C(O)[C@H](Cc1ccccc1)NS(=O)(=O)c1ccc2oc3ccccc3c2c1` [(L)-2-(Dibenzofuran-2-sulfonylamino)-3-phenyl-propionic acid], the IC50 at MMP-2 (Gelatinase A) amounted to 890 nM; at MMP-3 (stromelysin), 720 nM.
Consider `O=C(O)[C@H](Cc1ccccc1)NS(=O)(=O)c1ccc(N2CCC(Cc3ccccc3)CC2)cc1` [(S)-2-[4-(4-Benzyl-piperidin-1-yl)-benzenesulfonyl-amino]-3-phenyl-propionic acid], for which the 50% inhibitory concentration (IC50) at MMP-2 (Gelatinase A) amounted to 88 nM; on MMP-3 (stromelysin) it was 21 nM.
As for `CNC(=O)[C@@H](NC(=O)[C@@H](CC(=O)NO)CC(C)C)C(C)(C)C` [RO-31-9790, reference compound], the IC50 at MMP-2 (Gelatinase A) came out at 6 nM; in experiment [1], 5.5 nM; on MMP-3 (stromelysin), 470 nM.
For `CN(C)N=C(CCC(=O)O)c1ccc(-c2ccc(Cl)cc2)cc1` [4-(4′-Chloro-biphenyl-4-yl)-4-(dimethylhydrazono)-butyric acid], the IC50 at MMP-2 (Gelatinase A) turned out to be 730 nM; at MMP-3 (stromelysin) it was 930 nM.
On the same counts, the results for `CC(C)C[C@H](NS(=O)(=O)c1ccc2oc3ccccc3c2c1)C(=O)O` [(L)-2-(Dibenzofuran-2-sulfonylamino)-4-methyl-pentanoic acid] are 320 nM and 1180 nM.
For the compound `O=C(O)CCC(=NO)c1ccc(-c2ccc(Br)cc2)cc1` [4-(4′-Bromo-biphenyl-4-yl)-4-hydroxyimino-butyric acid], the IC50 was 58 nM at MMP-2 (Gelatinase A) and 110 nM at MMP-3 (stromelysin).
For the compound `O=C(O)[C@H](Cc1ccccc1)NS(=O)(=O)c1ccc(N2CCC(c3ccccc3)CC2)cc1` [(S)-3-Phenyl-2-[4-(4-phenyl-piperidin-1-yl)-benzene-sulfonylamino]-propionic acid], the half-maximal inhibitory concentration (IC50) on MMP-2 (Gelatinase A) is 220 nM; at MMP-3 (stromelysin), 14 nM.
On the same counts, the results for `O=C(O)CNS(=O)(=O)c1ccc(N2CCC(c3ccccc3)CC2)cc1` [[4-(4-Phenyl-piperidin-1-yl)-benzenesulfonylamino]-acetic acid] are 210 nM and 20 nM.
As for `O=C(O)[C@H](CSC(c1ccccc1)(c1ccccc1)c1ccccc1)NS(=O)(=O)c1ccc2oc3ccccc3c2c1` [(L)-2-(Dibenzofuran-2-sulfonylamino)-3-tritylsulfanyl-propionic acid], the IC50 worked out at 9400 nM at MMP-2 (Gelatinase A) and 14400 nM at MMP-3 (stromelysin).
On the same counts, the results for `N[C@@H](CC(=O)c1ccc2oc3ccccc3c2c1)C(=O)O` [(S)-2-Amino-4-dibenzofuran-2-yl-4-oxo-butyric acid] are 3800 nM and 33000 nM.
For the compound `O=C(O)CCC(=NO)c1ccc(-c2ccc(Cl)cc2)cc1` [4-(4′-Chloro-biphenyl-4-yl)-4-hydroxyimino-butyric acid], the IC50 on MMP-2 (Gelatinase A) stood at 390 nM; on MMP-3 (stromelysin) it was 120 nM.
Take `O=C(O)CCC(=O)c1ccc(N2CCN(c3ccccc3)CC2)cc1` [4-Oxo-4-[4-(4-phenyl-piperazin-1-yl)-phenyl]-butyric acid]: the results for the IC50 on MMP-2 (Gelatinase A) and at MMP-3 (stromelysin) were 1600 nM and 250 nM, respectively.
For the compound `O=C(Cc1ccccc1)N[C@@H](CC(=O)c1ccc2oc3ccccc3c2c1)C(=O)O` [(S)-4-Dibenzofuran-2-yl-4-oxo-2-phenylacetylamino-butyric acid], the half-maximal inhibitory concentration (IC50) on MMP-2 (Gelatinase A) was 84 nM; on MMP-3 (stromelysin), 330 nM.
On the same counts, the results for `O=C(C[C@H](NC(=O)C(F)(F)F)C(=O)O)c1ccc2oc3ccccc3c2c1` [(S)-4-Dibenzofuran-2-yl-4-oxo-2-(2,2,2-trifluoroacetylamino)-butyric acid] are 720 nM and 1330 nM.
Consider `O=C(CCc1ccccc1)N[C@@H](CC(=O)c1ccc2oc3ccccc3c2c1)C(=O)O` [(S)-4-Dibenzofuran-2-yl-4-oxo-2-(3-phenyl-propionylamino)-butyric acid], for which the concentration for half-maximal inhibition (IC50) on MMP-2 (Gelatinase A) came to 96 nM; at MMP-3 (stromelysin) it was 280 nM.
Regarding `O=C(O)[C@H](Cc1ccccc1)NS(=O)(=O)c1ccc(-c2ccc(Br)cc2)cc1` [(S)-2-(4′-Bromo-biphenyl-4-sulfonylamino)-3-phenyl-propionic acid], the IC50 on MMP-2 (Gelatinase A) was determined as 26 nM.
Consider `O=C(O)CCC(=O)c1ccc(N2CCC(c3ccccc3)CC2)cc1` [4-Oxo-4-[4-(4-phenyl-piperidin-1-yl)-phenyl]-butyric acid], for which the half-maximal inhibitory concentration (IC50) at MMP-2 (Gelatinase A) was found to be 1300 nM; at MMP-3 (stromelysin), 140 nM.
With `CC(C)[C@H](NS(=O)(=O)c1ccc2oc3ccccc3c2c1)C(=O)O` [(L)-2-(Dibenzofuran-2-sulfonylamino)-3-methyl-butyric acid], the IC50 is 84 nM at MMP-2 (Gelatinase A) and 230 nM at MMP-3 (stromelysin).
On to `CC(C)CC(CC(=O)NO)C(=O)N[C@@H](CC(C)C)C(=O)N[C@@H](Cc1ccccc1)C(N)=O` (stereo partly shown) [U24522, reference compound], for which, at MMP-3 (stromelysin), the IC50 is 20 nM.
`CC(=O)N[C@@H](CC(=O)c1ccc2oc3ccccc3c2c1)C(=O)O` [(S)-2-Acetylamino-4-dibenzofuran-2-yl-4-oxo-butyric acid]: the IC50 on MMP-2 (Gelatinase A) is 160 nM; at MMP-3 (stromelysin), 1550 nM.

For the origin of these results see patent US20040176393A1, “Statin-MMP inhibitor combinations” (priority 1998, published 2004).
